# Test results reported in patent US8501940B2, “Tetrahydrocinnoline derivatives” (Hoffmann-La Roche Inc., priority 2008, dated 2013).
# Biological target: T1, human 11beta-HSD1 (Homo sapiens, UniProt P28845)
# T1 construct: made in house; host or cells: HEK293 cells (ATCC CRL-1573), transient transfection with a pcDNA3 construct; microsomal fraction used
# Experiment: Microsome assay (cortisone to cortisol conversion, ELISA detection)
# Type: biochemical
# Conditions: microsomes from HEK293 cells transiently expressing human 11beta-HSD1; Cortisone 50-200 nM, NADPH 1 mM; 60 min at 37° C.; cortisol by ELISA; read-out: h 11-beta-HSD 1 IC50
# Method: The cDNA encoding the human 11beta-HSD1 protein was cloned into the expression vector pcDNA3 (Stratagene). This construct (for details see Alex Odermatt et al.; J Biol Chem., 1999, Vol. 274, Issue 40, 28762-28770) was used to transiently express the protein in HEK293 cells (ATCC number: CRL-1573, described in Graham, F. L., Smiley, J., Russell, W. C., Nairn, R.; (1977)) using lipofectamine. 48 h after transfection cells were washed twice with ice-cold PBS (Phosphate buffered Saline). To 1 volume of cell suspension in PBS 2 volumes of ice-cold lysis buffer (50 mM Tris; pH7.5; 1 mM EDTA; 100 mM NaCl) were added. The cells were lysed by Potter-homogenization (20 strokes). The resulting homogenate was sonicated with a tip sonicator (10% output; 2×30 sec.) and cleared by a low speed centrifugation (10 min×9000 g; 4° C.). The microsomal fraction was collected by a high speed centrifugation (60 min×110,000 g). The resulting pellet was resuspended in storage buffer (20 mM Tris pH 7.5; 1 mM EDTA; 10% Glycerol) and the centrifugation was repeated. The resulting pellet containing the microsomal fraction was again taken up into storage buffer and aliquots were kept frozen in liquid Nitrogen until use.
# Microsomes isolated from HEK293 cells transiently expressing human 11beta-HSD1 (for details see above) were incubated in assay buffer (100 mM NaCl; 1 mM EDTA; 1 mM EGTA; 1 mM MgCl; 250 mM Sucrose; 20 mM Tris pH 7.4; Cortisone 50-200 nM and NADPH 1 mM) together with different concentrations of test substances. After 60 min. of incubation at 37° C. the assay was stopped by heating to 80° C. (5 min.) and by addition of the inhibitor Carbenoxolone (1 uM). The amount of Cortisol produced in this assay was determined using a commercially available, ELISA-based Cortisol-detection kit (Distributed by Assay Design, Inc.). Inhibitors were characterized by there IC50 values, e.g. the concentration at which the production of cortisol was 50% reduced.
# T1 sequence (P28845 whole entry): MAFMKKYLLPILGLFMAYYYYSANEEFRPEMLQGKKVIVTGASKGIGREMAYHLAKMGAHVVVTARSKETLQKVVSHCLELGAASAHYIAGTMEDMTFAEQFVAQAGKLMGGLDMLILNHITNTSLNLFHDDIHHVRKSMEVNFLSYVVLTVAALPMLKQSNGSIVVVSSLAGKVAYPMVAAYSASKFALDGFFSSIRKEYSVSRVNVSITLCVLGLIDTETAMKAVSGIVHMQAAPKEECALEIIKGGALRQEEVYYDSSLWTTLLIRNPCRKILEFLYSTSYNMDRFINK
row,Compound,IC50
1,"Cc1c(-c2cc3c(nn2)C2CCC3C23CC3)cnn1C(C)(C)C (stereo not drawn) [Example 23, (5′RS,8′SR)-3′-(1-tert-butyl-5-methyl-1H-pyrazol-4-yl)-5′,6′,7′,8′-tetrahydrospiro[cyclopropane-1,9′-[1′,2′]diaza[5′,8′]methanocinnoline]]",95 pM
2,"FC(F)(F)c1ccc(Cl)cc1-c1cc2c(nn1)C1CCC2C12CC2 (stereo not drawn) [Example 24, (5′RS,8′SR)-3′-[5-chloro-2-(trifluoromethyl)phenyl]-5′,6′,7′,8′-tetrahydrospiro[cyclopropane-1,9′-[1′,2′]diaza[5′,8′]methanocinnoline]]",40 pM
3,"Cc1c(-c2cc3c(nn2)C2CCC3C23CCCC3)cnn1-c1ccccc1 (stereo not drawn) [Example 30, (5′RS,8′SR)-3′-(5-methyl-1-phenyl-1H-pyrazol-4-yl)-5′,6′,7′,8′-tetrahydrospiro[cyclopentane-1,9′-[1′,2′]diaza[5′,8′]methanocinnoline]]",62 pM
4,"Cc1c(-c2cc3c(nn2)C2CCC3C23CCCC3)cnn1C(C)(C)C (stereo not drawn) [Example 31, (5′RS,8′SR)-3′-(1-tert-butyl-5-methyl-1H-pyrazol-4-yl)-5′,6′,7′,8′-tetrahydrospiro[cyclopentane-1,9′-[1′,2′]diaza[5′,8′]methanocinnoline]]",13 pM

# Continued, values first:
row,IC50,Compound
1,1 pM,"Fc1ccc(-c2cc3c(nn2)C2CCC3CC2)c(C(F)(F)F)c1 [Example 25, 3-[4-fluoro-2-(trifluoromethyl)phenyl]-5,6,7,8-tetrahydro-5,8-ethanocinnoline]"
2,1 pM,"Fc1ccc(-c2cc3c(nn2)C2CCC3C23CCCC3)c(C(F)(F)F)c1 (stereo not drawn) [Example 27, (5′RS,8′SR)-3′-[4-fluoro-2-(trifluoromethyl)phenyl]-5′,6′,7′,8′-tetrahydrospiro[cyclopentane-1,9′-[1′,2′]diaza[5′,8′]methanocinnoline]]"
3,1 pM,"Fc1ccc(-c2cc3c(nn2)C2CCC3C23CCCC3)c(Cl)c1 (stereo not drawn) [Example 28, (5′RS,8′SR)-3′-(2-chloro-4-fluorophenyl)-5′,6′,7′,8′-tetrahydrospiro[cyclopentane-1,9′-[1′,2′]diaza[5′,8′]methanocinnoline]]"
4,1 pM,"Cc1ccccc1-c1cc2c(nn1)C1CCC2C12CCCC2 (stereo not drawn) [Example 29, (5′RS,8′SR)-3′-(2-methylphenyl)-5′,6′,7′,8′-tetrahydrospiro[cyclopentane-1,9′-[1′,2′]diaza[5′,8′]methanocinnoline]]"
5,6 pM,"FC(F)(F)c1ccc(Cl)cc1-c1cc2c(nn1)C1CCC2C12CCCC2 (stereo not drawn) [Example 32, (5′RS,8′SR)-3′-[5-chloro-2-(trifluoromethyl)phenyl]-5′,6′,7′,8′-tetrahydrospiro[cyclopentane-1,9′-[1′,2′]diaza[5′,8′]methanocinnoline]]"
6,5 pM,"(5′RS,8′SR)-3′-(2-methylphenyl)-5′,6′,7′,8′-tetrahydrospiro[cyclopropane-1,9′-[1′,2′]diaza[5′,8′]methanocinnoline] [Example 26]"

# System: men
# Experiment: not given
# Conditions: treatment with carbenoxolone in men; cited from earlier work
row,Compound,insulin sensitivity
1,CC1(C)[C@@H](OC(=O)CCC(=O)O)CC[C@]2(C)[C@H]3C(=O)C=C4[C@@H]5C[C@@](C)(C(=O)O)CC[C@]5(C)CC[C@@]4(C)[C@]3(C)CC[C@@H]12 [carbenoxolone],increase in insulin sensitivity
